From the supplement of paper PMC10307832

What was measured:
Assay in all cases: relative viability (nuclei count vs DMSO), 5 days (fraction); higher = more cells survive
Bosutinib = compound: COc1cc(Nc2c(C#N)cnc3cc(OCCCN4CCN(C)CC4)c(OC)cc23)c(Cl)cc1Cl [Bosutinib]
Method in brief: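 For viability, nuclei in each treated well were divided by nuclei in vehicle wells and the median across plates was taken. Lung cancer cell lines in 1536-well plates were pinned with five library-drug doses (not always all listed) spaced by √10, cultured 5 days without medium change, and imaged at 4× after Hoechst staining, with plates passing only at control CV below 25% and at least one doubling.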

Bosutinib + Navitoclax = compound: COc1cc(Nc2c(C#N)cnc3cc(OCCCN4CCN(C)CC4)c(OC)cc23)c(Cl)cc1Cl [Bosutinib] + CC1(C)CCC(c2ccc(Cl)cc2)=C(CN2CCN(c3ccc(C(=O)NS(=O)(=O)c4ccc(N[C@H](CCN5CCOCC5)CSc5ccccc5)c(S(=O)(=O)C(F)(F)F)c4)cc3)CC2)C1 [Navitoclax] (partner 0.5 µM)
Method in brief: (§1)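 Values are medians from duplicate plates. Each reflects relative viability, defined as the nuclei count of treated wells over that of vehicle wells. Lung cancer cell lines in 1536-well plates were pin-tool dosed one day after seeding with one drug alone or with a fixed anchor-drug dose plus five library-drug doses (not always all listed) in √10 steps, then fixed, stained and imaged at 4× after 5 days.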

Bosutinib + Lapatinib = compound: COc1cc(Nc2c(C#N)cnc3cc(OCCCN4CCN(C)CC4)c(OC)cc23)c(Cl)cc1Cl [Bosutinib] + CS(=O)(=O)CCNCc1ccc(-c2ccc3ncnc(Nc4ccc(OCc5cccc(F)c5)c(Cl)c4)c3c2)o1 [Lapatinib] (partner 2 µM)
Method in brief: as §1

Bosutinib + Dasatinib = compound: COc1cc(Nc2c(C#N)cnc3cc(OCCCN4CCN(C)CC4)c(OC)cc23)c(Cl)cc1Cl [Bosutinib] + Cc1nc(Nc2ncc(C(=O)Nc3c(C)cccc3Cl)s2)cc(N2CCN(CCO)CC2)n1 [Dasatinib] (partner 0.075 µM)
Method in brief: as §1

Bosutinib + Vorinostat = compound: COc1cc(Nc2c(C#N)cnc3cc(OCCCN4CCN(C)CC4)c(OC)cc23)c(Cl)cc1Cl [Bosutinib] + O=C(CCCCCCC(=O)Nc1ccccc1)NO [Vorinostat] (partner 1 µM)
Method in brief: as §1

Cell Line | relative viability (Bosutinib; 0.01 µM) | relative viability (Bosutinib; 0.03162 µM) | relative viability (Bosutinib; 0.1 µM) | relative viability (Bosutinib; 1 µM) | relative viability (Bosutinib + Navitoclax; first compound 0.01 µM) | relative viability (Bosutinib + Navitoclax; first compound 0.03162 µM) | relative viability (Bosutinib + Navitoclax; first compound 0.1 µM) | relative viability (Bosutinib + Navitoclax; first compound 1 µM) | relative viability (Bosutinib + Lapatinib; first compound 0.01 µM) | relative viability (Bosutinib + Lapatinib; first compound 0.03162 µM) | relative viability (Bosutinib + Lapatinib; first compound 0.1 µM) | relative viability (Bosutinib + Lapatinib; first compound 1 µM) | relative viability (Bosutinib + Dasatinib; first compound 0.01 µM) | relative viability (Bosutinib + Dasatinib; first compound 0.03162 µM) | relative viability (Bosutinib + Dasatinib; first compound 0.1 µM) | relative viability (Bosutinib + Dasatinib; first compound 1 µM) | relative viability (Bosutinib + Vorinostat; first compound 0.01 µM) | relative viability (Bosutinib + Vorinostat; first compound 0.03162 µM) | relative viability (Bosutinib + Vorinostat; first compound 0.1 µM) | relative viability (Bosutinib + Vorinostat; first compound 1 µM)
EMC-BAC-2 | 0.95 | 1.09 | 1.09 | 0.928 | 1.2 | 1.1 | 1.15 | 1.15 | 0.878 | 0.835 | 0.86 | 0.873 | 0.356 | 0.325 | 0.347 | 0.328 | 0.427 | 0.713 | 0.831 | 0.396
NCI-H661 | 0.97 | 1.09 | 1.06 | 0.731 | – | – | – | – | 0.489 | 0.511 | 0.468 | 0.354 | 0.947 | 0.883 | 0.884 | 0.814 | 0.784 | 0.912 | 0.866 | 0.829
LU99A | 0.958 | 1.02 | 1.04 | 0.606 | 0.769 | 0.878 | 0.782 | 1.06 | 1.05 | 1.01 | 0.976 | 0.876 | 0.611 | 0.582 | 0.635 | 0.548 | 0.51 | 0.495 | 0.573 | 0.483
LK-2 | 0.942 | 0.972 | 0.929 | 0.867 | 0.955 | 0.943 | 0.838 | 0.74 | 0.848 | 1.12 | 0.944 | 0.803 | 0.288 | 0.287 | 0.264 | 0.296 | 0.267 | 0.278 | 0.263 | 0.313
NCI-H3122 | 1.02 | 1.02 | 1.01 | 0.993 | 0.99 | 0.972 | 1.01 | 1.03 | 0.99 | 1.05 | 1.02 | 0.933 | 0.894 | 0.716 | 0.768 | 0.781 | 0.991 | 0.917 | 0.967 | 0.953
NCI-H1563 | 1.05 | 0.906 | 0.928 | 0.713 | – | – | – | – | 0.869 | 0.931 | 0.84 | 0.758 | 0.444 | 0.47 | 0.446 | 0.472 | – | – | – | –
NCI-H358 | 0.964 | 0.913 | 0.961 | 0.685 | – | – | – | – | 0.558 | 0.476 | 0.41 | 0.543 | 0.2 | 0.201 | 0.206 | 0.366 | 0.634 | 0.697 | 0.548 | 0.483
IA-LM | 0.998 | 1.08 | 0.967 | 1.01 | 0.779 | 0.816 | 0.842 | 0.764 | 0.811 | 0.848 | 0.92 | 0.798 | – | – | – | – | 1.06 | 0.945 | 0.894 | 0.947
ChaGo-K-1 | 0.966 | 0.976 | 1.01 | 0.997 | 0.602 | 1.33 | 1.31 | 1.56 | – | – | – | – | 0.662 | 0.56 | 0.637 | 0.6 | 0.808 | 0.847 | 0.792 | 0.789
NCI-H2342 | 0.961 | 0.99 | 0.926 | 1.21 | – | – | – | – | – | – | – | – | 0.289 | 0.305 | 0.317 | 0.344 | 0.779 | 0.787 | 0.859 | 0.828
NCI-H441 | 1.1 | 1.1 | 1.31 | 1.03 | 0.589 | 0.599 | 0.411 | 0.518 | – | – | – | – | 0.55 | 0.667 | 0.676 | 0.848 | 0.827 | 0.885 | 0.936 | 0.835
ABC-1 | 0.976 | 0.99 | 0.854 | 0.88 | – | – | – | – | 1.26 | 1.2 | 1.05 | 0.786 | 0.548 | 0.605 | 0.65 | 0.488 | 1.18 | 1.08 | 1.32 | 1.14
NCI-H1792 | 0.822 | 1.08 | 0.993 | 0.84 | 0.68 | 0.682 | 0.67 | 0.619 | 0.892 | 0.866 | 0.918 | 0.866 | 0.805 | 0.796 | 0.875 | 0.781 | – | – | – | –
HCC-44 | 0.99 | 1.02 | 1.02 | 1.01 | 1.03 | 0.926 | 0.969 | 0.849 | 1.03 | 0.96 | 0.982 | 1.07 | – | – | – | – | 1.08 | 1.11 | 1.06 | 1.16
NCI-H1703 | 0.869 | 0.972 | 0.835 | 0.468 | 0.985 | 1.06 | 0.922 | 0.43 | 1.04 | 1.1 | 0.825 | 0.653 | – | – | – | – | – | – | – | –
NCI-H522 | 0.935 | 1.03 | 1.05 | 0.895 | – | – | – | – | – | – | – | – | 0.89 | 0.691 | 0.794 | 0.979 | 0.873 | 0.88 | 0.892 | 0.783
SW 900 | 0.856 | 0.706 | 0.801 | 0.815 | – | – | – | – | – | – | – | – | 0.774 | – | 0.682 | 0.749 | 0.605 | 0.531 | 0.671 | 0.409
NCI-H650 | 1 | 1.06 | 1.08 | 1.11 | – | – | – | – | 0.889 | 1.07 | 0.948 | 1.15 | 0.47 | 0.502 | 0.488 | 0.552 | 0.446 | 0.356 | 0.483 | 0.415
LCLC-103H | 1.01 | 0.999 | 0.991 | 0.996 | – | – | – | – | – | – | – | – | 0.513 | 0.502 | 0.567 | 0.449 | 0.799 | 0.858 | 0.889 | 0.841
